Experimental data taken from patent US20100285959A1, “HERBICIDAL MIXTURES” (priority 2006, published 2010).

Legend:
yellow foxtail (SETLU) = assay: Test 1 field trial, preemergence; type: in vivo, Setaria glauca; conditions: 56 DAA; g a.i./ha: Atrazine 1680; S-Metolachlor 1870
Excerpt: (§1) Corn seeds (hybrid ‘Pioneer 34N43’) were planted in mid spring season, 3.8 cm deep in a silt loam soil having 4.6% organic matter and a pH of 6. Plots were 10.7 m long by 1.5 m wide with rows spaced 76 cm apart. Seeds were spaced 18 cm apart within the rows. The field was managed using conventional tillage practices. […] Results are summarized in Table 1 and are the means of the three replicates. […] Colby's Equation (Colby, S. R. “Calculating Synergistic and Antagonistic Responses of Herbicide Combinations,” Weeds, 15(1), pp 20-22 (1967)) calculates the expected additive effect of herbicidal mixtures, and for two active ingredients is of the form:
(§2) Pa+b=Pa+Pb−(PaPb/100) • wherein Pa+b is the percentage effect of the mixture expected from additive contribution of the individual components, • Pa is the observed percentage effect of the first active ingredient at the same use rate as in the mixture, and • Pb is the observed percentage effect of the second active ingredient at the same use rate as in the mixture.

[1] = system: Brazilian crabgrass (DIGHO); assay: Test 11 field trial, preemergence; type: in vivo, Digitaria horizontalis; set-up: scale not given here; conditions: atrazine 1500 or metolachlor 2500 g a.i./ha alone
Excerpt: (§3) Corn seeds (hybrid ‘Pioneer 3041’) were planted in mid spring season, 5 cm deep in a clay soil having 2.6% organic matter and a pH of 5.6. Plots were 8 m long by 1.5 m wide with rows spaced 80 cm apart. Seeds were spaced 15 cm apart within the rows. The field was managed using conventional tillage practices. […] Treatments consisted of Compound 2 or
(§4) Goosegrass was not evaluated 16 or 91 days after application.

giant foxtail (SETFA) [2] = assay: Test 5 field trial, postemergence; type: in vivo, Setaria faberi; conditions: atrazine 1120, glufosinate 470 or glyphosate 1120 g a.i./ha alone
Excerpt: (§5) Corn seeds (hybrid ‘Pioneer 38H69’) were planted in mid spring season, 5.1 cm deep in a silty clay loam soil having 3% organic matter and a pH of 6.5. Plots were 9.1 m long by 3.0 m wide with rows spaced 76 cm apart. The field was managed using conventional tillage practices. […] All treatments included a surfactant except glufosinate treatments, both alone and in combination. […] Results are summarized in Table 5 and are the means of the three replicates.

field pennycress (THLAR) = assay: Test 1 field trial, preemergence; type: in vivo, Thlaspi arvense; conditions: 28 DAA; g a.i./ha: Atrazine 1680; S-Metolachlor 1870
Excerpt: as §1, §2

goosegrass (ELEIN) = assay: Test 11 field trial, preemergence; type: in vivo, Eleusine indica
Excerpt: as §3, §4

giant foxtail (SETFA) [3] = assay: Test 10 field trial, preemergence; type: in vivo, Setaria faberi; conditions: 28 DAA; g a.i./ha: Cpd 2 100, Atrazine 1680, S-Metolachlor 1870
Excerpt: (§6) Corn seeds (hybrid ‘Pioneer 33P65 RR’) were planted in mid spring season, 2.5 cm deep in a silt loam soil. Plots were 9.1 m long by 3.0 m wide with rows spaced 76 cm apart. The field was managed using conventional tillage practices. […] Results are the means of the three replicates.

common cocklebur (XANST) = assay: Test 10 field trial, preemergence; type: in vivo, Xanthium strumarium ssp. strumarium; conditions: 28 DAA; g a.i./ha: Cpd 2 100, Atrazine 1680, S-Metolachlor 1870
Excerpt: as §6

[4] = system: Pennsylvania smartweed (POLPY); assay: Test 8 field trial, preemergence; type: in vivo, Polygonum pensylvanicum
Excerpt: (§7) Corn seeds (hybrid ‘Pioneer 31G96’) were planted in mid spring season, 3.8 cm deep in a clay loam soil having 2% organic matter and a pH of 6.6. Plots were 6.1 m long by 3.0 m wide with rows spaced 76 cm apart. Seeds were spaced 15 cm apart within the rows. The field was managed using conventional tillage practices. […] A few of the weed species could not be evaluated at every timing. […] Results are the means of the three replicates.

arrowleaf sida (SIDRH) = assay: Test 11 field trial, preemergence; type: in vivo, Sida rhombifolia
Excerpt: as §3, §4

corn (ZEAMD) = assay: Test 10 field trial, preemergence; type: in vivo, Zea mays ssp. indentata; conditions: 28 DAA; g a.i./ha: Cpd 2 100, Atrazine 1680, S-Metolachlor 1870
Excerpt: as §6

redroot pigweed (AMARE) = assay: Test 6 field trial, postemergence; type: in vivo, Amaranthus retroflexus; conditions: 1120 g a.i./ha
Excerpt: Corn seeds (hybrid ‘Pioneer 35Y62’) were planted in mid spring season, 3.8 cm deep in a silt loam soil having 4% organic matter and a pH of 5.8. Plots were 10.7 m long by 1.5 m wide with rows spaced 76 cm apart. Seeds were spaced 18 cm apart within the rows. The field was managed using conventional tillage practices. […] All treatments included a surfactant except glufosinate treatments, both alone and in combination. […] Results are summarized in Table 6 and are the means of the three replicates.

velvetleaf (ABUTH) [5] = assay: Test 10 field trial, preemergence; type: in vivo, Abutilon theophrasti; conditions: 28 DAA; g a.i./ha: Cpd 2 100, Atrazine 1680, S-Metolachlor 1870
Excerpt: as §6

velvetleaf (ABUTH) [6] = assay: Test 8 field trial, preemergence; type: in vivo, Abutilon theophrasti; conditions: g a.i./ha: Cpd 2 100, Atrazine 1680, S-Metolachlor 1870
Excerpt: as §7

velvetleaf (ABUTH) [7] = assay: Test 5 field trial, postemergence; type: in vivo, Abutilon theophrasti; conditions: atrazine 1120, glufosinate 470 or glyphosate 1120 g a.i./ha alone
Excerpt: as §5

[8] = 30 DAA, atrazine 1500 or metolachlor 2500 g a.i./ha alone
[9] = 44 DAA, atrazine 1500 or metolachlor 2500 g a.i./ha alone
[10] = 62 DAA, 1500 g a.i./ha, scale 0 to 100

CCNc1nc(Cl)nc(NC(C)C)n1 [Atrazine, atrazine, reference compound]
SETLU Obs (yellow foxtail (SETLU)): 0
DIGHO Obs ([1]; 16 DAA): 60
DIGHO Obs ([1]; 30 DAA): 40
DIGHO Obs ([1]; 44 DAA): 20
DIGHO Obs ([1]; 62 DAA): 0
DIGHO Obs ([1]; 91 DAA): 0
SETFA Obs (giant foxtail (SETFA) [2]; 16 DAA): 0%
SETFA Obs (giant foxtail (SETFA) [2]; 31 DAA): 0%
THLAR Obs (field pennycress (THLAR)): 93
ELEIN Obs (goosegrass (ELEIN); [8]): 95
ELEIN Obs (goosegrass (ELEIN); [9]): 100
ELEIN Obs (goosegrass (ELEIN); [10]): 100
SETFA Obs (giant foxtail (SETFA) [3]): 23%
XANST Obs (common cocklebur (XANST)): 40%
POLPY Obs ([4]; 29 DAA, g a.i./ha: Cpd 2 100, Atrazine 1680, S-Metolachlor 1870): 100%
POLPY Obs ([4]; 56 DAA, g a.i./ha: Cpd 2 100, Atrazine 1680): 100%
SIDRH Obs (arrowleaf sida (SIDRH); 16 DAA, atrazine 1500 or metolachlor 2500 g a.i./ha alone): 97
SIDRH Obs (arrowleaf sida (SIDRH); [8]): 100
SIDRH Obs (arrowleaf sida (SIDRH); [9]): 95
SIDRH Obs (arrowleaf sida (SIDRH); [10]): 80
SIDRH Obs (arrowleaf sida (SIDRH); 91 DAA, 1500 g a.i./ha, scale 0 to 100): 90
ZEAMD Obs (corn (ZEAMD)): 0%
AMARE Obs (redroot pigweed (AMARE); 14 DAA): 100%
AMARE Obs (redroot pigweed (AMARE); 28 DAA): 100%
ABUTH Obs (velvetleaf (ABUTH) [5]): 55%
ABUTH Obs (velvetleaf (ABUTH) [6]; 19 DAA): 87%
ABUTH Obs (velvetleaf (ABUTH) [6]; 29 DAA): 99%
ABUTH Obs (velvetleaf (ABUTH) [6]; 56 DAA): 98%
ABUTH Obs (velvetleaf (ABUTH) [7]; 16 DAA): 40%
ABUTH Obs (velvetleaf (ABUTH) [7]; 31 DAA): 13%
